These are literature values, as cited in patent US10806826B2, “Bone graft substitute containing a temporary contrast agent and a method of generating such and a method of use thereof” (BACTERIN INTERNATIONAL, INC., priority 2013, dated 2020).

Like-named read-outs stand apart in the source and are kept apart here.

For data set [1] the following is noted: intravenous.
For data set [2] the following is noted: intravascular.
The conditions of data set [3]: oral, dosage 2-12 mL/kg.

As for `FC(F)(F)C(F)(F)C(F)(F)N(C(F)(F)C(F)(F)C(F)(F)F)C(F)(F)C(F)(F)C(F)(F)F` [Perfluorotripropylamine], the “Clearance/Half-life (t1/2)” value in data set [1] was 1510 h.

In the case of `FC1(F)C(F)(F)C(F)(F)C2(F)C(F)(F)C(F)(F)C(F)(F)C(F)(F)C2(F)C1(F)F` (stereo not shown) [Perfluorodecalin], in data set [1], the “Clearance/Half-life (t1/2)” value is 140 h.

Regarding `CC(=O)N(CC(O)CO)c1c(I)c(C(=O)NCC(O)CO)c(I)c(C(=O)NCC(O)CO)c1I` (stereo not shown) [Iohexol], the “Clearance/Half-life (t1/2)” value in data set [1] (dosage varies by imaging needs) was “t1/2 = 30-60 minutes”. The “Clearance: excreted within 24 hours” value in data set [2] (dosage 500-1500 mgl/kg) was approximately 90% excreted.

`FC(F)(F)C(F)(F)C(F)(F)C(F)(F)C(F)(F)C(F)(F)C(F)(F)C(F)(F)Br` [Perfluorooctyl bromide, perfluorooctyl bromide]: the “Clearance/Half-life (t1/2)” value in data set [2] (dosage 1.2 g/kg) is 9.4 h; in data set [2] (dosage 1.8 g/kg), “t1/2 = 6.1 hours”. The “Clearance: excreted within 24 hours” value in data set [3] was more than 95% excreted.
